# Counter-ions that a name gives are not always drawn. Like-named read-outs stand apart in the source and are kept apart here.
# Legend:
# [1] = system: apomorphine-induced gnawing; test: Antiapomorphine activity (apomorphine-induced gnawing) in the rat; format: in vivo
# Description: A number of the compounds of the present invention were screened in parallel with metoclopramide for potential anti-emetic effects against apomorphine-induced gnawing in the rat and as local anaesthetics on the rat sciatic nerve (Table I).
# *Antiapomorphine activity in rat scored as […]
# [2] = in vivo; conditions: rat, po
# [3] = Metabolism and pharmacokinetics in the rabbit; format: in vivo; conditions: intravenous
# [4] = system: gastric emptying time in humans; test: Gastric emptying in humans, evaluated by radiologist; format: in vivo; parameters: key to effect on gastric emptying: +: no effect; ++: moderate effect; +++: good effect; ++++: maximum effect
# Description: The evaluation was based on the subjective opinion of the radiologist in terms of the time required for the appearance of peristaltic waves and their capacity to evacuate. the stomach, according to the following scheme:
# [5] = system: oxotremorine; test: Oxotremorine test in mice; conditions: mice previously treated with sub-threshold dose of oxotremorine
# [6] = system: electrically induced convulsions; test: Electrically induced convulsions in mice; format: in vivo; conditions: mice
# [7] = Metabolism and pharmacokinetics in the rat; format: in vivo; conditions: intravenous
# [8] = system: catatonia in rats
# [9] = system: convulsions induced by strychnine; test: Strychnine-induced convulsions in the mouse; format: in vivo
# [10] = system: writhing syndrome; test: Writhing syndrome induced by intra-peritoneal acetic acid in mice; format: in vivo; conditions: 300 mg/kg per os
# Description: The HCl-Clebopride salt does have antipyretic and analgesic activity.
# [11] = Pharmacokinetics after oral administration of high doses of the malate salt; format: in vivo
# [12] = system: healthy male volunteers; test: Acute tolerance following intramuscular and intravenous administration in humans; format: in vivo
# Experimental: Another study has been made to investigate the acute tolerance of the malate salt of Clebopride following intramuscular and intravenous administration in humans.
# The subjects used were healthy male volunteers between 20 and 24 years of age and were divided into 8 groups and dosed with the test compound according to the following scheme:
# Group I: 1 mg intramuscular per day for 5 days
# Group II: 1.5 mgs intrasmuscular per day for 5 days
# Group III: 2 mgs intramuscular per day for 5 days
# Group IV: 0.25 mg intravenously per day for 5 days
# Group V: 0.50 mg intravenously per day for 5 days
# Group VI: 1 mg intravenously per day for 5 days
# Group VII: 1.5 mgs intravenously per day for 5 days
# Group VIII: 2 mgs intravenously per day for 5 days
# The parameters evaluated were subjective symptoms; psychic disturbances; neurological disturbances; autonomic symptoms; digestive disturbances; urogenital disturbances; skin and mucous membranes; pulse; blood pressure; temperature; other side effects; blood analysis--leucocytes formula, hemoglobin content, erythrocyte sedimentation rate, glucose, cholesterol, urea, hepatic function tests, transaminasas; and urine analysis--density, albumin, sediment.
# [13] = system: spontaneous motor activity; conditions: mouse, in vivo
# [14] = system: incoordination; conditions: mouse, in vivo
# [15] = system: oxotremorine; conditions: mouse, in vivo
# [16] = system: apomorphine-induced vomiting; test: Apomorphine-induced vomiting in the dog; format: in vivo; conditions: Canis lupus familiaris, po, per os, Table II, read-out: ED50 (95% confidence limits), apomorphine induced vomiting
# [17] = 2 mg, compared with 20 mg of metoclopramide
# [18] = Rattus norvegicus, po; rats; per os; Table III; read-out: Antiapomorphine Activity, Rats, ED50 (95% confidence limits)
# [19] = Rattus norvegicus, po; per os; Table I; read-out: ED50 Values
# [20] = Rattus norvegicus; read-out: Antiapomorphine in rat
# [21] = compared with metoclopramide; from Table I
smiles,measurement,setting,value
"CN(C)CCCN1c2ccccc2Sc2ccc(Cl)cc21 [Chlorpromazine, reference compound]",ED50,"[1]; Rattus norvegicus, po, read-out: Antiapomorphine Activity, Rats, ED50 (95% confidence limits)",7.95 mg/kg
same,minimal effective dose,"[1]; Rattus norvegicus, read-out: Antiapomorphine in rat",6.25 mg/kg
same,TD50,[2],12.3 mg/kg
"COc1cc(N)c(Cl)cc1C(=O)NC1CCN(Cc2ccccc2)CC1 [Clebopride, N-[4'-(1'-benzyl)-piperidyl]-2-methoxy-4-amino-5-chloro-benzamide]",pharmacokinetics after intravenous administration,[3],follows a similar pattern in both species
same,No. of Patients with + (no effect),"[4]; 0.2 mg by mouth, 6 patients",0
same,No. of Patients with ++ (moderate effect),"[4]; 0.2 mg by mouth, 6 patients",0
same,No. of Patients with +++ (good effect),"[4]; 0.2 mg by mouth, 6 patients",6
same,No. of Patients with ++++ (maximum effect),"[4]; 0.2 mg by mouth, 6 patients",0
same,contraction of the stomach,"[4]; 0.2 mg, compared with 20 mgs of metoclopramide",as rapid and forceful contraction of the stomach as 20 mgs of metoclopramide
same,No. of Patients with + (no effect),"[4]; 1 mg by mouth, 6 patients",1
same,No. of Patients with ++ (moderate effect),"[4]; 1 mg by mouth, 6 patients",2
same,No. of Patients with +++ (good effect),"[4]; 1 mg by mouth, 6 patients",3
same,No. of Patients with ++++ (maximum effect),"[4]; 1 mg by mouth, 6 patients",0
same,No. of Patients with + (no effect),"[4]; 2 mg by mouth, 8 patients",0
same,No. of Patients with ++ (moderate effect),"[4]; 2 mg by mouth, 8 patients",2
same,No. of Patients with +++ (good effect),"[4]; 2 mg by mouth, 8 patients",3
same,No. of Patients with ++++ (maximum effect),"[4]; 2 mg by mouth, 8 patients",3
same,contraction of the stomach,[4]; [17],more forceful contraction than 20 mg of metoclopramide
same,onset of action,[4]; [17],more rapid onset of action
same,No. of Patients with + (no effect),"[4]; 5 mg by mouth, 9 patients",0
same,No. of Patients with ++ (moderate effect),"[4]; 5 mg by mouth, 9 patients",2
same,No. of Patients with +++ (good effect),"[4]; 5 mg by mouth, 9 patients",0
same,No. of Patients with ++++ (maximum effect),"[4]; 5 mg by mouth, 9 patients",7
same,salivation and tremors,[5],capable of causing salivation and tremors
same,potency in preventing electrically induced convulsions,[6],somewhat more potent than metoclopramide
same,pharmacokinetics after intravenous administration,[7],follows a similar pattern in both species
same,catatonia,"[8]; rat, in words",noted in the rat
same,antiemetic doses compared with those causing catatonia,"[8]; rats, Table III",exhibits antiemetic activity (anti-apomorphine activity) at doses which are far removed from those causing catatonia
same,inhibition of convulsions induced by strychnine,[9],neither Clebopride nor metoclopramide appear to inhibit convulsions induced by strychnine
same,ED50,[1]; [18],1.85 mg/kg
same,TD50,[2],47.6 mg/kg
same,inhibition of writhing syndrome,[10],almost completely inhibited the writhing syndrome
"COc1cc(N)c(Cl)cc1C(=O)NC1CCN(Cc2ccccc2)CC1 [malate salt of Clebopride, N-[4'-(1'-benzyl)piperidyl]-2-methoxy-4-amino-5-chlorobenzamide malate]",absorption,[11]; high doses,good absorption
same,appearance of metabolites in blood,[11]; high doses,rapid appearance of metabolites in blood
same,peak levels,[11]; high doses,rapidly appearing peak levels
same,plasma concentrations,[11]; high doses,relatively low plasma concentrations
same,first pass metabolism and/or uptake in the liver,[11]; suggested,extensive first pass metabolism and/or uptake take place in the liver
same,side effects,"[12]; Group I: 1 mg intramuscular per day for 5 days, four subjects",one case of slight sleepiness was noted from the second day of treatment
same,side effects,"[12]; Group II: 1.5 mgs intramuscular per day for 5 days, four subjects","Tiredness, sleepiness and fatigue in three of the four subjects in Group II accompanied with slight depression"
same,side effects,"[12]; Group III: 2 mgs intramuscular per day for 5 days, four subjects","Three of the four subjects in Group III showed sleepiness, fatigue and depression followed by euphoria"
same,blood and urine analysis,[12]; Groups II and VII,no significant variations
same,dose dependence of side effects,"[12]; Groups IV to VIII, intravenous",not to be dose dependent
same,side effects,[12]; Groups IV to VIII: 0.25 to 2 mgs intravenously per day for 5 days,"Sleepiness, fatigue and depression of medium intensity were seen in many patients"
same,additional side effects,[12]; Groups VII and VIII: 1.5 and 2 mgs intravenously per day for 5 days,"some degree of sweating, hypersalivation and dryness of the mouth were variously seen"
"CCN(CC)CCNC(=O)c1cc(Cl)c(N)cc1OC [Metoclopramide, reference compound]",spontaneous motor activity,[13],inhibit spontaneous motor activity
same,effect on gastric emptying,"[4]; 10-20 mgs, as a guide",+++
same,incoordination,[14],cause incoordination
same,salivation and tremors,[15],capable of causing salivation and tremors
same,ED50,[16],0.343 mg/kg
same,antiemetic doses compared with those causing catatonia,"[8]; rat, in vivo",at doses which are far removed from those causing catatonia
same,inhibition of convulsions induced by strychnine,[9],neither Clebopride nor metoclopramide appear to inhibit convulsions induced by strychnine
same,ED50,[1]; [19],~6 mg/kg
same,ED50,[1]; [18],11.8 mg/kg
same,minimal effective dose,[1]; [20],12.5 mg/kg
same,TD50,[2],93 mg/kg
"COc1cc(N)ccc1C(=O)NC1CCN(Cc2ccccc2)CC1 [Compound 8, N-[4'-(1'-benzyl)-piperidyl]-2-methoxy-4-aminobenzamide dihydrochloride]",ED50,[1]; [19],< 25 mg/kg
same,minimal effective dose,[1]; [20],6.25 mg/kg
same,activity as an anti-emetic,[1]; [21],more active as an anti-emetic
"COc1ccc(CN2CCC(NC(=O)c3cc(Cl)c(N)cc3OC)CC2)cc1 [Compound 18, N-[4'-(1'-p-methoxy-benzyl)-piperidyl]-2-methoxy-4-amino-5-chloro-benzamidehydrochloride]",minimal effective dose,[1]; [20],3.12 mg/kg
same,activity as an anti-emetic,[1]; [21],more active as an anti-emetic
"COc1cc(N)c(Cl)cc1C(=O)NC1CCN(CC=Cc2ccccc2)CC1 [Compound 16, N-[4'-(1'-cinnamyl)-piperidyl]-2-methoxy-4-amino-5-chlorobenzamide hydrochloride]",minimal effective dose,[1]; [20],25 mg/kg
"COc1ccccc1CN1CCC(NC(=O)c2cc(Cl)c(N)cc2OC)CC1 [Compound 20, N-[4'-(1'-o-methoxy-benzyl)-piperidyl]-2-methoxy-4-amino-5-chloro-benzamide]",minimal effective dose,[1]; [20],25 mg/kg
COc1cc(N)c(Cl)cc1C(=O)NC1CCN(Cc2cccs2)CC1 [Compound 14],minimal effective dose,[1]; [20],12.5 mg/kg
